Patent US9447054B2, “Anticancer supplement agent including benzo[D]oxazol derivative as effective ingredient” (KOREA INSTITUTE OF RADIOLOGICAL & MEDICAL SCIENCES, priority 2014, dated 2016)

Assays:
[1] = test system: lung cancer cells (H1299); test: Colony-forming assay with gamma irradiation, lung cancer cells; assay type: cell-based; conditions: H1299, 1 μM to 10 μM for 2 hours, gamma radiation, 7 days, FIG. 8
Experimental: (§1) Lung cancer cells (H1299, ATCC, CRL-5803™), brain cancer cells (U87MG, ATCC, HTB-14™ human glioblastoma), breast cancer cells (MDA-MB231, ATCC, HTB-26™ human breast adenocarcinoma), and colorectal cancer cells (HCT116, ATCC, CCL-247™ human colorectal carcinoma) were each inoculated in each well of a 96-well plate containing Rosewell Park Memorial Institute medium (RPMI) 1640 enriched with 10% FBS, 100 μg/ml of streptomycin, and 100 unit/ml of penicillin. Then, these cells were each treated with 2-(5-bromonaphthalene-1-yl)benzo[d]oxazole-5-amine (Derivative #1) for 2 hours in a concentration of 1 μM to 10 μM, were irradiated using gamma radiation according to radiation dose, and were cultured for 7 days under conditions of 5% CO2 and a temperature of 37° C. The cultured cells were washed out with phosphate buffered saline (PBS), and then, were stained with a mixture of 1% methylene blue and 100% methanol. Afterwards, a number of colony-forming cells was counted, and all the treatment above were repeatedly performed 3 times.

Nrf2 protein = molecular target: T1, Nrf2 protein (Homo sapiens, UniProt Q16236); test: Western blot of Nrf2 protein in tBHQ-treated lung cancer cells; assay type: cell-based; conditions: 5 μM or 10 μM, 2 hours, FIG. 5
T1 construct: endogenous in cells
T1 sequence (Q16236 1-605): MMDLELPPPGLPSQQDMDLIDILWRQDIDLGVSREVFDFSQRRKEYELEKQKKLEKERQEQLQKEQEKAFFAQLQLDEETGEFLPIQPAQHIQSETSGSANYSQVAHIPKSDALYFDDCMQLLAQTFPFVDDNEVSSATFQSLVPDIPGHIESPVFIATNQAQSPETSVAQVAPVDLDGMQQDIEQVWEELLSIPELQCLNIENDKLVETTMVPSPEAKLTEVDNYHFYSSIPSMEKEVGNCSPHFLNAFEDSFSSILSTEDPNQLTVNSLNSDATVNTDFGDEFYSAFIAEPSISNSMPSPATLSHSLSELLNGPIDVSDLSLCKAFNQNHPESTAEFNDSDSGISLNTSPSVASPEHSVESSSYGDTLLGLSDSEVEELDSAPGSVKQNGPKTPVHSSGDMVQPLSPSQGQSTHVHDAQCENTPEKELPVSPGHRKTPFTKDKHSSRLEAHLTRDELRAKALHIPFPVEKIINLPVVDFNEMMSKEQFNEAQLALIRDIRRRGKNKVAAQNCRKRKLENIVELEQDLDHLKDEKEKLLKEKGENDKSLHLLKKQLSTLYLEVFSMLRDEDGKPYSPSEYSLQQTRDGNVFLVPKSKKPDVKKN
Experimental: (§2) By using a western blot, it was confirmed whether 2-(5-bromonaphthalene-1-yl)benzo[d]oxazole-5-amine (Derivative #1), which is a Nrf2 inhibitor, has targeted a Nrf2 protein and its downstream antioxidant enzyme heme oxygenase (HO)-1, based on the inhibitory activity of the ARE-pGL3 luciferase.
(§3) The lung cancer cells were treated with 2-(5-bromonaphthalene-1-yl)benzo[d]oxazole-5-amine (Derivative #1) in a concentration of about 5 μM or about 10 μM, and 2 hours later, the protein expression was analyzed to measure amounts of Nrf2 and HO-1 proteins, which were increased by tBHQ treatment.
(§4) First, the cells treated with 2-(5-bromonaphthalene-1-yl)benzo[d]oxazole-5-amine (Derivative #1) were obtained, and then, cytosolic fractions were obtained therefrom by using a method commonly used in the art.
(§5) The cytosolic fractions were separated by electrophoresis using 10% gradient SDS-PAGE, and then, were transferred to a nitrocellulose membrane (BioRad, Hercules, Calif., USA). The membrane was blocked with 5% skim milk, and then, a reaction with primary antibodies, e.g., anti-Nrf2 (Abcam, USA) and an HO-1 antibody (Oncogene Research Products, USA), was allowed. […]

[2] = test system: lung cancer cells (H1299); test: ROS production by DCF-DA staining and FACS, combined with irradiation; assay type: cell-based
Experimental: The lung cancer cells (H1299) that were cultured in the same manner as in Example 1 were treated with dihydrodichlorofluorescein diacetate (DCF-DA, Sigma, USA) and were subjected to fluorescence staining. The stained cells were then treated with 2-(5-bromonaphthalene-1-yl)benzo[d]oxazole-5-amine (Derivative #1) for 2 hours in a concentration of 5 μM or 10 μM, and 5 Gy of irradiation. Afterwards, an increase in ROS production upon inhibition of Nrf2 was analyzed by FACS.
In addition, in order to confirmed whether the values measured by FACS analysis refer to the ROS production, the lung cancer cells (H1299) were treated with 2 mM of N-acetyl-L-cysteine (NAC), which is a ROS inhibitor, and then, were treated in combination with 2-(5-bromonaphthalene-1-yl)benzo[d]oxazole-5-amine (Derivative #1) in a concentration of 10 μM and irradiation. As a result, it was confirmed that the ROS production was inhibited.

[3] = test system: lung cancer cells (H1299); test: CCK-8 cell viability analysis (cytotoxicity of the derivative alone); assay type: cell-based; conditions: 1 μM, 5 μM and 10 μM, FIG. 2
Source text: Here, in order to confirm that the inhibitory activity of luciferase was caused by an Nrf2 inhibitor, rather than by apoptosis of the cells, cell counting kit-8 (CCK-8) (Dojindo, Japan) for the determination of cell viability and a spectroscopic device (Labsystems, USA) were used to measure absorbance values of the cells at a wavelength of 480 nm.
Here, in order to confirm that the inhibitory activity of luciferase was caused by Nrf2 inhibitors, i.e., Derivative #2 to #10, rather than by apoptosis of the cells, CCK-8 (Dojindo, Japan) for the determination of cell viability and a spectroscopic device (Labsystems, USA) were used to measure absorbance values of the cells at a wavelength of 480 nm.

[4] = test system: breast cancer cells (MDA-MB231); test: Colony-forming assay with gamma irradiation, breast cancer cells; assay type: cell-based, human; conditions: MDA-MB231, 1 μM to 10 μM for 2 hours, gamma radiation, 7 days, FIG. 10
Experimental: as §1

[5] = test system: colorectal cancer cells (HCT116); test: Colony-forming assay with gamma irradiation, colorectal cancer cells; assay type: cell-based, human; conditions: HCT116, 1 μM to 10 μM for 2 hours, gamma radiation, 7 days, FIG. 11
Experimental: as §1

[6] = test system: brain cancer cells (U87MG); test: Colony-forming assay with gamma irradiation, brain cancer cells; assay type: cell-based, human; conditions: 1 μM to 10 μM for 2 hours, gamma radiation, 7 days, FIG. 9
Experimental: as §1

Nrf2 = test: ARE-pGL3 (Nrf2-responsive) luciferase reporter analysis in tBHQ-treated lung cancer cells; assay type: cell-based
Experimental: Lung cancer cells (H1299) purchased from American Type Culture Collection (ATCC, CRL-5803™) were cultured in Dulbecco's modified Eagle's medium (DMEM) enriched with 10% fetal bovine serum (FBS), 100 μg/ml of streptomycin, and 100 unit/ml of penicillin, under conditions of 5% CO2 and a temperature of 37° C.
Then, the cells were transformed by using Lipofectamine 2000 (In vitrogen, Life technologies, USA) (i.e., a plasmid transfection reagent used in DMEM) so that an antioxidant response element (ARE)-pGL3 luciferase plasmid to which an Nrf2 transcription factor can bind was introduced to the cells, according to the manufacturer's instructions.
About 20,000 of the transformed cells were inoculated in each well of a 96-well plate, and then, the cells were cultured for 24 hours under the same conditions described above. Afterwards, tertiary butylhydroquinone (tBHQ) that activates ARE was added to each well. Accordingly, it was confirmed that activity of luciferase was increased at least about 3 times as large as activity of luciferase in cells that were not treated with tBHQ.
Next, the tBHQ-treated cells were additionally treated with 2-(5-bromonaphthalene-1-yl)benzo[d]oxazole-5-amine (ChemBridge, cat#5721754, San Diego, Calif., USA) (Derivative #1) in concentration of 1 μM, 5 μM, and 10 μM, and then, were incubated for 18 hours. […]

heme oxygenase (HO)-1 = test: Western blot of HO-1 protein in tBHQ-treated lung cancer cells; assay type: cell-based; conditions: 5 μM or 10 μM, 2 hours, FIG. 5
Experimental: as §2, §3, §4, §5

[7] = test system: lung cancer cell strain (H1299); test: CCK-8 analysis after derivative plus doxorubicin (anticancer agent sensitivity); assay type: cell-based; conditions: 48 hours, FIG. 13
Experimental: In order to confirm whether the above-described benzo[d]oxazole derivative that increases the apoptotic effects of ROS also have such apoptotic effects when the benzo[d]oxazole derivative is used in combination with, other than radiation, an anticancer agent to produce ROS, the synthesized benzo[d]oxazole derivative was treated in combination with doxorubicin, which is an anticancer agent.
The lung cancer cell strain (H1299) was treated with each of the synthesized benzo[d]oxazole derivatives (Derivatives #1 to #10) for 2 hours in a concentration of 10 μM, and then, were treated with doxorubicin in a concentration of 150 nM. After 48 hours of the treatment, CCK-8 for the determination of cell viability was used to measure the lung cancer cells that were died by apoptosis.

Nc1ccc2oc(-c3cccc4c(Br)cccc34)nc2c1 [Derivative #1, 2-(5-bromonaphthalene-1-yl)benzo[d]oxazole-5-amine]
apoptotic effects on cancer cells by irradiation (colony-forming cells) [1]: increased apoptotic effects
amount of Nrf2 protein increased by tBHQ treatment (Nrf2 protein): reduced depending on the concentration
ROS production relative to 5 Gy of irradiation only ([2]; H1299, 5 μM for 2 hours plus 5 Gy irradiation): about 3.5 times
ROS production relative to 5 Gy of irradiation only ([2]; H1299, 10 μM for 2 hours plus 5 Gy irradiation): ~4.6 times
cytotoxicity (CCK-8 viability) [3]: no cytotoxicity
apoptotic effects on cancer cells by irradiation (colony-forming cells) [4]: increased apoptotic effects
apoptotic effects on cancer cells by irradiation (colony-forming cells) [5]: increased apoptotic effects
apoptotic effects on cancer cells by irradiation (colony-forming cells) [6]: increased apoptotic effects
inhibitory activity of ARE-responsive luciferase (Nrf2; tBHQ-treated H1299, 1 μM, 5 μM and 10 μM, 18 hours, FIG. 1): dependent upon concentration
amount of HO-1 protein increased by tBHQ treatment (heme oxygenase (HO)-1): reduced depending on the concentration
apoptotic cell death relative to control group ([7]; H1299, derivative 10 μM for 2 hours then doxorubicin 150 nM): about 3.7 times

CC(=O)N[C@@H](CS)C(=O)O [NAC, N-acetyl-L-cysteine, reference compound]
ROS production after ROS inhibitor treatment ([2]; H1299, 2 mM NAC, then Derivative #1 10 μM plus irradiation): inhibited

COc1cccc2c1C(=O)c1c(O)c3c(c(O)c1C2=O)C[C@@](O)(C(=O)CO)C[C@@H]3O[C@H]1C[C@H](N)[C@H](O)[C@H](C)O1 [doxorubicin, reference compound]
apoptotic cell death relative to control group ([7]; H1299, doxorubicin 150 nM only): about 1.35 times

CC(C)(C)c1cc(O)ccc1O [tBHQ, tertiary butylhydroquinone, reference compound]
activity of luciferase relative to cells not treated with tBHQ (Nrf2; ARE-pGL3 transformed H1299 cells, tBHQ added to each well): at least 3 times
